Results taken from patent US20250263376A1, “(E)-N-CINNAMOYLAMINOALKANOLS WITH MELANOGENESIS INHIBITORY ACTIVITY” (Uniwersytet Jagiellonski, priority 2024, published 2025).

Experiments:
[1] = test system: neuroblastoma SH-SY5Y; experiment: Safety, LDH test in SH-SY5Y; type: cell-based; details: 48 hours, vs Triton X-100
Description: (§1) In order to test the safety of the compounds, both normal human cells were used: keratinocytes (HaCaT), fibroblasts (BJ), primary melanocytes that occur in the skin, as well as human cancer cells: the hepatocarcinoma line HepG2 and the neuroblastoma line SH-SY5Y, which are considered a model for the assessment of hepatocytotoxicity and neurocytotoxicity. The concentrations of the tested compounds in the range of […] were used in the studies. The cell lines used in the research were purchased from the American Type Culture Collection (ATCC) and were cultured in media recommended by the manufacturer with the addition of FBS and antibiotics in an incubator ensuring appropriate culture conditions, i.e. humidity, temperature and CO2 concentration. Cells were seeded into multiwell plates and incubated with the test compounds for 48 hours. After this time, MTT and LDH tests were performed to assess cell viability. The MTT test is based on the ability to transform the substrate: [3-(4,5-dimethyl-2-thiazolyl)-2,5-diphenyl-2H-tetrazolium bromide into a colored product only by living cells. The absorbance at 570 nm, which corresponds to the absorption maximum for the product, is directly proportional to cell viability. The LDH test is based on testing the activity of the enzyme lactate dehydrogenase in the culture medium, which is released from cells as a result of damage to the cell membrane, e.g. as a result of cell death. Triton X-100 was used as a positive control in the test. The determination is colorimetric, the substrate is transformed by the released enzyme into a colored product, an increase in absorbance indicates a larger amount of the released enzyme, and thus confirms greater damage to cell membranes. Tables 7 and 8 present the results obtained, which correspond to the viability of cells incubated with the compounds in relation to the viability of cells constituting a control sample, i.e. incubated with the solvent (DMSO) at the same concentration as in the case of the groups tested in the MTT test or in relation to the results obtained for the Triton X-100 positive control in the LDH test. They indicate that the compounds are safe at the concentrations tested.

[2] = test system: keratinocytes (HaCaT); experiment: Safety, LDH test in keratinocytes; type: cell-based; details: 48 hours, vs Triton X-100
Description: as §1

[3] = test system: CHO-K1 cells; experiment: Cytotoxicity (MTT) in CHO-K1 cells before the micronucleus test; type: cell-based, Chinese hamster; details: 24 hours
Description: The assay was performed using a Chinese hamster ovary cell line (CHO-K1) purchased from the American Type Culture Collection (ATCC). The cells were cultured in F-12K medium with the addition of 10% fetal bovine serum (FBS) and antibiotics (streptomycin/penicillin) in an incubator at 37° C. and 5% CO2 concentration). Before the actual micronucleus test, a cytotoxicity assessment was performed to ensure that the actual test was performed only at safe concentrations. For this purpose, cells were transferred to 96-well plates and incubated with the tested compounds for 24 hours. After this time, the MTT test was performed and cell viability was assessed in comparison to the control group (cells cultured with DMSO at the same concentration as in the case of the tested samples).

[4] = test system: S. typhimurium TA1537; experiment: Ames microplate test, TA1537; type: cell-based, Salmonella typhimurium
Description: Bacteria were grown overnight in growth medium.

[5] = test system: reconstructed human epidermis containing melanocytes MelanoDerm MEL-300-B; experiment: Melanogenesis inhibition in reconstructed human epidermis containing melanocytes (MelanoDerm); type: cell-based; details: 14 days, MTT
Description: Melanogenesis Inhibition Studies in a Model of Reconstructed Human Epidermis Containing Melanocytes (MelanoDerm by Mattek).
The research was carried out on reconstructed human epidermis containing melanocytes MelanoDerm™ MEL-300-B from MatTek (Bratislava, Slovakia). The ratio of keratinocytes to melanocytes in the epidermis used is 10:1. Only medium purchased from the same manufacturer (EPI-100-NMM-113) was used to culture the epidermis during the experiments. Once the epidermis was obtained, it was transferred to 12-well plates containing 5 mL of medium/well. Plates were used to enable proper contact of the lower parts of the inserts with the substrate (so-called hanging-top plate). Solutions of the compounds were prepared immediately before their application. The solutions were applied to the inserts using a positive displacement pipette and then distributed using a sterile glass bulb headed Pasteur pipette. The application was repeated every 48 hours, a total of 7 applications were performed. Before the next application, each insert was rinsed with sterile DPBS and dried with a sterile cotton buds. The application was also accompanied by a change of the medium. […] The epidermis was cultured in an incubator ensuring appropriate humidity, temperature (37° C.) and CO2 concentration (5%).
The experiment was conducted for 14 days. After this time, the inserts were rinsed with DPBS and dried with a cotton swab. For the selected pool of inserts, tissue viability was assessed using the MTT (Thiazolyl Blue Tetrazolium bromide) test, the remaining ones were used to determine the amount of melanin. To assess viability, the inserts were transferred to 24-well plate containing 0.3 mL of DMEM medium with 1 mg/mL MTT and incubated for 3 hours in an incubator. The epidermis was then placed in 2 mL of isopropanol and the resulting formazan was extracted for 2 hours at room temperature. The absorbance of the samples was measured at 570 nm in a microplate reader and correlated with the absorbance of the control by the formula: % Viability=[OD (570 nm) for test compound/OD (570 nm) for control]×100. To determine the amount of melanin, the inserts were incubated in 5% sodium bicarbonate for 30 min, then dried and placed in 0.5 mL of Solvable™ reagent, which caused complete lysis of the epidermis. After heating at 95° C., the absorbance of the samples was measured at 405 nm in a microplate reader. On this basis, the reduction in the amount of melanin was calculated in relation to the control sample. The absorbance results were also correlated with a standard curve for synthetic melanin.

Row | SMILES | LDH, Neuroblastoma SH-SY5Y ([1]; 100 μM) | LDH, Neuroblastoma SH-SY5Y ([1]; 150 μM) | LDH, Neuroblastoma SH-SY5Y ([1]; 200 μM) | LDH, Neuroblastoma SH-SY5Y ([1]; 250 μM) | LDH, Keratinocytes (HaCaT) ([2]; 100 μM) | LDH, Keratinocytes (HaCaT) ([2]; 150 μM) | LDH, Keratinocytes (HaCaT) ([2]; 200 μM) | LDH, Keratinocytes (HaCaT) ([2]; 250 μM) | % Viability [mean], CHO-K1 ([3]; 100 μM) [%] | % Viability [mean], CHO-K1 ([3]; 150 μM) [%] | % Viability [mean], CHO-K1 ([3]; 200 μM) [%] | Increase in the number of yellow wells compared to the reference level, TA1537 ([4]; 0.5 mM, without S9) | Increase in the number of yellow wells compared to the reference level, TA1537 ([4]; 1.0 mM, without S9) | Increase in the number of yellow wells compared to the reference level, TA1537 ([4]; 2.0 mM, without S9) | Viability [% control, mean ± SD] ([5]; 1.0% in 50% PEG (10 μL)) [% control] | Increase in the number of yellow wells compared to the reference level, TA1537 ([4]; 0.5 mM, + S9) | Increase in the number of yellow wells compared to the reference level, TA1537 ([4]; 1.0 mM, + S9) | Increase in the number of yellow wells compared to the reference level, TA1537 ([4]; 2.0 mM, + S9) | Viability [% control, mean ± SD] ([5]; 1.0% in 50% PEG (25 μL)) [% control] | Viability [% control, mean ± SD] ([5]; 2.0% in 50% PEG (25 μL)) [% control]
1 | O=C(/C=C/c1ccc(Cl)cc1)NCCO [H-427/21, (2E)-3-(4-chlorophenyl)-N-(2-hydroxyethyl)prop-2-enamide] | 3.09 percentage of positive control | 4.45 percentage of positive control | 5.98 percentage of positive control | 8.87 percentage of positive control | 2.76 percentage of positive control | 3.69 percentage of positive control | 6.50 percentage of positive control | 17.79 percentage of positive control |  |  |  |  |  |  |  |  |  |  |  | 
2 | Cc1ccc(/C=C/C(=O)NCCCCCO)cc1 [H-415/21, (2E)-N-(5-hydroxypentyl)-3-(4-methylphenyl)prop-2-enamide] | 3.90 percentage of positive control | 7.24 percentage of positive control | 8.92 percentage of positive control | 10.55 percentage of positive control | 2.95 percentage of positive control | 6.70 percentage of positive control | 10.18 percentage of positive control | 18.19 percentage of positive control | 102.2 | 102.8 | 87.2 | 0.33 | 0.33 | 0.00 |  |  |  |  |  | 
3 | O=C(/C=C/c1ccccc1)NCCCCCO [Compound A-133, (2E)-N-(5-hydroxypentyl)-3-phenylprop-2-enamide] | 5.33 percentage of positive control | 6.93 percentage of positive control | 8.49 percentage of positive control | 13.32 percentage of positive control | 3.23 percentage of positive control | 3.08 percentage of positive control | 6.38 percentage of positive control | 19.58 percentage of positive control | 94.6 | 97.2 | 89.1 | 1.07 | 0.54 | 0.54 | 101.22 ± 6.52 | 0.18 | 0.36 | 0.27 |  | 
4 | O=C(/C=C/c1ccccc1)NCCCCCCO [H-425/21, (E)-N-(6-hydroxyhexyl)cinnamic acid amide] |  |  |  |  |  |  |  |  | 87.6 | 83.8 | 88.0 | 0.09 | 0.18 | 0.82 | 87.16 ± 6.30 | 1.33 | 0.00 | 1.00 |  | 
5 | O=C(/C=C/c1ccc(Cl)cc1)NCCCCCO [Compound A-111, (2E)-3-(4-chlorophenyl)-N-(5-hydroxypentyl)prop-2-enamide] | 4.90 percentage of positive control | 4.61 percentage of positive control | 5.98 percentage of positive control | 6.77 percentage of positive control | 4.69 percentage of positive control | 4.43 percentage of positive control | 6.49 percentage of positive control | 13.55 percentage of positive control | 86.1 | 95.6 | 98.6 | 0.80 | 0.54 | 0.54 | 101.45 ± 6.45 | 0.27 | 0.45 | 0.27 | 85.67 ± 7.25 | 106.64 ± 7.78
6 | O=C(/C=C/c1ccc(Cl)cc1)NCCCO [H-330/21, (2E)-3-(4-chlorophenyl)-N-(3-hydroxypropyl)prop-2-enamide] | 6.19 percentage of positive control | 4.90 percentage of positive control | 8.35 percentage of positive control | 13.41 percentage of positive control | 3.66 percentage of positive control | 5.33 percentage of positive control | 17.03 percentage of positive control | 24.24 percentage of positive control |  |  |  |  |  |  |  |  |  |  |  | 
